In patent US8476289B2, “Aza-bicyclohexyl substituted indolyl alkyl amino derivatives as novel inhibitors of histone deacetylace” (Janssen Pharmaceutica NV, priority 2008, dated 2013):
Structures can show the parent of a compound that is named as a salt.

Legend:
HCT116 cells = test: Antiproliferative activity on HCT116 cells (Alamar Blue assay, example C.2); format: cell-based; conditions: HCT-116, 96 h, Human colon carcinoma HCT116 cells, 4-day incubation, read-out: Cellular activity pIC50 C.2 (converted)
Method: Cellular activity of the compounds of formula (I) was determined on HCT116 tumour cells using a colorimetric assay for cell toxicity or survival (Mosmann Tim, Journal of Immunological Methods 65: 55-63, 1983) (see example C.2).
Human colon carcinoma HCT116 cells obtained from the ATCC were cultured in McCoy's 5A medium supplemented with 2 mM L-Glutamine, 50 μg/ml gentamicin and 10% heat inactivated fetal calf serum.
Reagents Used in the Alamar Blue Assay
Resazurin was purchased from Aldrich (Prod. No. 199303). Potassium ferrocyanide, potassium ferricyanide, KH2PO4 and K2HPO4 were purchased from Sigma (Prod. Nos. P9387, P8131, P5655 and P8281, respectively).
Potassium Phosphate Buffer 0.1 M (PPB) was made as follows: 2.72 gram KH2PO4 and 13.86 gram K2HPO4 were dissolved in 500 ml milli-Q H2O, the pH was adjusted to pH 7.4 and the volume was brought to 1 liter with milli-Q H2O; the buffer was filter sterilised and stored at room temperature. Resazurin stock solution (PPB-A) was prepared fresh by dissolving 45 mg resazurin in 15 ml PBS. 30 mM potassium ferricyanide (PPB-B) was prepared by dissolving 0.987 gram potassium ferricyanide in 100 ml PPB. 30 mM potassium ferrocyanide (PPB-C) was prepared by dissolving 1.266 gram potassium ferrocyanide in 100 ml PPB.
Mixture of PPB-A, PPB-B and PPB-C was prepared by mixing equal volumes of the respective solutions. Resazurin work solution (herein termed “Alamar Blue” solution) was prepared by diluting said mixture 20× (vol/vol) in PPB and filter sterilising; the Alamar Blue solution could be kept at 4° C. for a maximum of 2 weeks.
Procedure of the Alamar Blue Assay
For experiments in 384 wells plates the cells were seeded at a density of 4.5×10^3 cells/ml in Falcon 384-well culture plates (Life Technologies, Merelbeke, Belgium), black with clear bottom, in 45 μl culture medium. Cells were allowed to adhere to plastic for 24 hr. The tested compound was pre-diluted (1/50 in culture medium) and 5 μl pre-diluted compound was added to the wells. Following 4-day incubation, 10 μl of the Alamar Blue solution was added to each well and the cells were further incubated for 4 hrs (HCT116) or 24 hrs (PC-3) at 37° C. The fluorescence intensity was measured for each well on a Fluorescence plate reader (Fluorskan, Labsystems, 540 nm excitation and 590 nm emission)
The antiproliferative activity was calculated as percentage of remaining viable cells in treated versus control (untreated cells) conditions. Within an experiment, the result for each experimental condition is the mean of 3 replicate wells. When appropriate, the experiments were repeated to establish full concentration-response curves. When appropriate, IC50-values (concentration of the drug, needed to reduce cell growth to 50% of the control) were computed using probit analysis for graded data (Finney, D. J., Probit Analyses, 2nd Ed. Chapter 10, Graded Responses, Cambridge University Press, Cambridge 1962). Herein the effects of test compounds are expressed as pIC50 (the negative log value of the IC50-value) (see Table F-2).

[1] = target: histone deacetylase (HeLa nuclear extracts); test: In vitro assay for inhibition of histone deacetylase (example C.1.c, HeLa nuclear extracts); format: biochemical; conditions: HeLa nuclear extract, 45 min at 37° C.; work performed by Reaction Biology Corp.
Method: The in vitro assay for inhibition of histone deacetylase (see example C.1) measures the inhibition of HDAC enzymatic activity obtained with the compounds of formula (I).
HeLa nuclear extracts (prepared by high salt extraction of HeLa nuclei, J. D. Dignam et al., S. M. Abmayr et al) were incubated with 9 mg/ml in 0.1M KCl, 20 mM HEPES/NaOH, pH 7.9, 20% (v/v) glycerol, 0.2 mM EDTA, 0.5 mM DTT, 0.5 mM PMSF of enzyme. After 45 min, at 37° C. the deacetylation reaction was terminated. The developer reaction (also at 37° C.) was read in a time dependent manner for an hour. For each experiment, controls (containing HeLa nuclear extract and DMSO without compound) and samples (containing compound dissolved in DMSO and HeLa nuclear extract) were run in parallel. The compounds were tested at concentrations between 10^−5M and 10^−12M. The control sample represented 100% of substrate deactylation. For each sample the activity was expressed as a percentage of the mean value of the controls. Appropriate IC50-values (concentration of the drug, needed to reduce the amount of metabolites to 50% of the control) were computed using the Prism program. Herein the effects of test compounds are expressed as pIC50 (the negative log value of the IC50-value) (see Table F-2). Work was performed by Reaction Biology Corp. (Malvern, Pa., USA).

Compound | melting point [°C] | IC50 (HCT116 cells) [nM] | Enzymatic activity pIC50 C.1.c. [1]
Cn1cc(CNCC2C3CN(c4ncc(C(=O)NO)cn4)CC23)c2ccccc21 (centres unmarked) (as salt: trifluoroacetate) [Compound 1] | 150 |  | 
Cn1cc(CNC2C3CN(c4ncc(C(=O)NO)cn4)CC32)c2ccccc21 (centres unmarked) (as salt: trifluoroacetate) [Compound 2] | 157 |  | 
Cn1cc(CNCC2C3CN(c4ncc(C(=O)NO)cn4)CC23)c2ccccc21 (centres unmarked) [Compound 1] |  | 89.1 | 8.39
Cn1cc(CNC2C3CN(c4ncc(C(=O)NO)cn4)CC32)c2ccccc21 (centres unmarked) [Compound 2] |  | 661 | 8.62
Cn1cc(CNCC2C3CN(c4ncc(C(=O)NO)cn4)CC23)c2cc(Cl)ccc21 (centres unmarked) [Compound 3] |  | 75.9 | 
Cn1cc(CNCC2C3CN(c4ncc(C(=O)NO)cn4)CC23)c2cc(F)ccc21 (centres unmarked) [Compound 4] |  | 81.3 | 
Cn1cc(CNCC2C3CN(c4ncc(C(=O)NO)cn4)CC23)c2cc(C#N)ccc21 (centres unmarked) [Compound 5] |  | 398 | 
CCCn1cc(CNCC2C3CN(c4ncc(C(=O)NO)cn4)CC23)c2cc(Cl)ccc21 (centres unmarked) [Compound 6] |  | 35.5 | 
CCCn1cc(CNCC2C3CN(c4ncc(C(=O)NO)cn4)CC23)c2cc(F)ccc21 (centres unmarked) [Compound 7] |  | 25.7 | 
